Data as given in ChEMBL document CHEMBL2321764, “Synthesis and antibacterial activities of new piperidine substituted (5R)-[1,2,3]triazolylmethyl and (5R)-[(4-F-[1,2,3]triazolyl)methyl] oxazolidinones” (Bioorg Med Chem Lett, 2013).
≈ marks a conversion by molar mass, not a printed value.

Tested on: Streptococcus pyogenes
Experiment: Antibacterial activity against Streptococcus pyogenes 308A by agar dilution method
Type: functional

| Compound | MIC [µg/mL] |
| --- | --- |
| CCOC(=O)CC1=CCN(c2ccc(N3C[C@H](Cn4ccnn4)OC3=O)cc2F)CC1 | 1.56 (≈ 3.63 µM) |
| N#CCC1=CCN(c2ccc(N3C[C@H](Cn4ccnn4)OC3=O)cc2F)CC1 | 0.39 (≈ 1.02 µM) |
| CCOC(=O)C=C1CCN(c2ccc(N3C[C@H](Cn4ccnn4)OC3=O)cc2F)CC1 | 6.25 (≈ 14.6 µM) |
| N#CC1=CCN(c2ccc(N3C[C@H](Cn4ccnn4)OC3=O)cc2F)CC1 | 1.56 (≈ 4.23 µM) |
| CCOC(=O)C(C)=C1CCN(c2ccc(N3C[C@H](Cn4cc(F)nn4)OC3=O)cc2F)CC1 | 100 (≈ 217 µM) |
| CCOC(=O)C(C)=C1CCN(c2ccc(N3C[C@H](Cn4ccnn4)OC3=O)cc2F)CC1 | 0.78 (≈ 1.76 µM) |
| N#CC1(O)CCN(c2ccc(N3C[C@H](Cn4cc(F)nn4)OC3=O)cc2F)CC1 | 6.25 (≈ 15.5 µM) |
| N#CCC1=CCN(c2ccc(N3C[C@H](Cn4cc(F)nn4)OC3=O)cc2F)CC1 | 25 (≈ 62.4 µM) |
| COC(=O)C=C1CCN(c2ccc(N3C[C@H](Cn4ccnn4)OC3=O)cc2F)CC1 | 0.78 (≈ 1.88 µM) |
| CCOC(=O)C(Cl)=C1CCN(c2ccc(N3C[C@H](Cn4cc(F)nn4)OC3=O)cc2F)CC1 | 50 (≈ 104 µM) |

Tested on: Staphylococcus aureus
Experiment: Antibacterial activity against methicillin-resistant Staphylococcus aureus C463 by agar dilution method
Type: functional

| Compound | MIC [µg/mL] |
| --- | --- |
| CCOC(=O)CC1=CCN(c2ccc(N3C[C@H](Cn4ccnn4)OC3=O)cc2F)CC1 | 6.25 (≈ 14.6 µM) |
| N#CCC1=CCN(c2ccc(N3C[C@H](Cn4ccnn4)OC3=O)cc2F)CC1 | 3.12 (≈ 8.16 µM) |
| CCOC(=O)C=C1CCN(c2ccc(N3C[C@H](Cn4ccnn4)OC3=O)cc2F)CC1 | 25 (≈ 58.2 µM) |
| N#CC1=CCN(c2ccc(N3C[C@H](Cn4ccnn4)OC3=O)cc2F)CC1 | 3.12 (≈ 8.47 µM) |
| CCOC(=O)C(C)=C1CCN(c2ccc(N3C[C@H](Cn4cc(F)nn4)OC3=O)cc2F)CC1 | 100 (≈ 217 µM) |
| CCOC(=O)C(C)=C1CCN(c2ccc(N3C[C@H](Cn4ccnn4)OC3=O)cc2F)CC1 | 12.5 (≈ 28.2 µM) |
| N#CC1(O)CCN(c2ccc(N3C[C@H](Cn4cc(F)nn4)OC3=O)cc2F)CC1 | 100 (≈ 247 µM) |
| N#CCC1=CCN(c2ccc(N3C[C@H](Cn4cc(F)nn4)OC3=O)cc2F)CC1 | 100 (≈ 250 µM) |
| COC(=O)C=C1CCN(c2ccc(N3C[C@H](Cn4ccnn4)OC3=O)cc2F)CC1 | 3.12 (≈ 7.51 µM) |
| CCOC(=O)C(Cl)=C1CCN(c2ccc(N3C[C@H](Cn4cc(F)nn4)OC3=O)cc2F)CC1 | 100 (≈ 208 µM) |

Tested on: Enterococcus faecium
Experiment: Antibacterial activity against vancomycin-resistant Enterococcus faecium C803 by agar dilution method
Type: functional

| Compound | MIC [µg/mL] |
| --- | --- |
| CCOC(=O)CC1=CCN(c2ccc(N3C[C@H](Cn4ccnn4)OC3=O)cc2F)CC1 | 6.25 (≈ 14.6 µM) |
| N#CCC1=CCN(c2ccc(N3C[C@H](Cn4ccnn4)OC3=O)cc2F)CC1 | 3.12 (≈ 8.16 µM) |
| CCOC(=O)C=C1CCN(c2ccc(N3C[C@H](Cn4ccnn4)OC3=O)cc2F)CC1 | 25 (≈ 58.2 µM) |
| N#CC1=CCN(c2ccc(N3C[C@H](Cn4ccnn4)OC3=O)cc2F)CC1 | 3.12 (≈ 8.47 µM) |
| CCOC(=O)C(C)=C1CCN(c2ccc(N3C[C@H](Cn4cc(F)nn4)OC3=O)cc2F)CC1 | 100 (≈ 217 µM) |
| CCOC(=O)C(C)=C1CCN(c2ccc(N3C[C@H](Cn4ccnn4)OC3=O)cc2F)CC1 | 6.25 (≈ 14.1 µM) |
| N#CC1(O)CCN(c2ccc(N3C[C@H](Cn4cc(F)nn4)OC3=O)cc2F)CC1 | 100 (≈ 247 µM) |
| N#CCC1=CCN(c2ccc(N3C[C@H](Cn4cc(F)nn4)OC3=O)cc2F)CC1 | 100 (≈ 250 µM) |
| COC(=O)C=C1CCN(c2ccc(N3C[C@H](Cn4ccnn4)OC3=O)cc2F)CC1 | 6.25 (≈ 15 µM) |
| CCOC(=O)C(Cl)=C1CCN(c2ccc(N3C[C@H](Cn4cc(F)nn4)OC3=O)cc2F)CC1 | 100 (≈ 208 µM) |

Tested on: Streptococcus agalactiae
Experiment: Antibacterial activity against Streptococcus agalactiae ATCC 2901 by agar dilution method
Type: functional

| Compound | MIC [µg/mL] |
| --- | --- |
| CCOC(=O)CC1=CCN(c2ccc(N3C[C@H](Cn4ccnn4)OC3=O)cc2F)CC1 | 1.56 (≈ 3.63 µM) |
| N#CCC1=CCN(c2ccc(N3C[C@H](Cn4ccnn4)OC3=O)cc2F)CC1 | 1.56 (≈ 4.08 µM) |
| CCOC(=O)C=C1CCN(c2ccc(N3C[C@H](Cn4ccnn4)OC3=O)cc2F)CC1 | 12.5 (≈ 29.1 µM) |
| N#CC1=CCN(c2ccc(N3C[C@H](Cn4ccnn4)OC3=O)cc2F)CC1 | 1.56 (≈ 4.23 µM) |
| CCOC(=O)C(C)=C1CCN(c2ccc(N3C[C@H](Cn4cc(F)nn4)OC3=O)cc2F)CC1 | 100 (≈ 217 µM) |
| CCOC(=O)C(C)=C1CCN(c2ccc(N3C[C@H](Cn4ccnn4)OC3=O)cc2F)CC1 | 1.56 (≈ 3.52 µM) |
| N#CC1(O)CCN(c2ccc(N3C[C@H](Cn4cc(F)nn4)OC3=O)cc2F)CC1 | 12.5 (≈ 30.9 µM) |
| N#CCC1=CCN(c2ccc(N3C[C@H](Cn4cc(F)nn4)OC3=O)cc2F)CC1 | 25 (≈ 62.4 µM) |
| COC(=O)C=C1CCN(c2ccc(N3C[C@H](Cn4ccnn4)OC3=O)cc2F)CC1 | 1.56 (≈ 3.76 µM) |
| CCOC(=O)C(Cl)=C1CCN(c2ccc(N3C[C@H](Cn4cc(F)nn4)OC3=O)cc2F)CC1 | 25 (≈ 51.9 µM) |

Tested on: Staphylococcus
Experiment: Antibacterial activity against methicillin-resistant coagulase negative Staphylococcus by agar dilution method
Type: functional

| Compound | MIC [µg/mL] |
| --- | --- |
| CCOC(=O)CC1=CCN(c2ccc(N3C[C@H](Cn4ccnn4)OC3=O)cc2F)CC1 | 6.25 (≈ 14.6 µM) |
| N#CCC1=CCN(c2ccc(N3C[C@H](Cn4ccnn4)OC3=O)cc2F)CC1 | 3.12 (≈ 8.16 µM) |
| CCOC(=O)C=C1CCN(c2ccc(N3C[C@H](Cn4ccnn4)OC3=O)cc2F)CC1 | 25 (≈ 58.2 µM) |
| N#CC1=CCN(c2ccc(N3C[C@H](Cn4ccnn4)OC3=O)cc2F)CC1 | 3.12 (≈ 8.47 µM) |
| CCOC(=O)C(C)=C1CCN(c2ccc(N3C[C@H](Cn4cc(F)nn4)OC3=O)cc2F)CC1 | 100 (≈ 217 µM) |
| CCOC(=O)C(C)=C1CCN(c2ccc(N3C[C@H](Cn4ccnn4)OC3=O)cc2F)CC1 | 12.5 (≈ 28.2 µM) |
| N#CC1(O)CCN(c2ccc(N3C[C@H](Cn4cc(F)nn4)OC3=O)cc2F)CC1 | 100 (≈ 247 µM) |
| N#CCC1=CCN(c2ccc(N3C[C@H](Cn4cc(F)nn4)OC3=O)cc2F)CC1 | 100 (≈ 250 µM) |
| COC(=O)C=C1CCN(c2ccc(N3C[C@H](Cn4ccnn4)OC3=O)cc2F)CC1 | 3.12 (≈ 7.51 µM) |
| CCOC(=O)C(Cl)=C1CCN(c2ccc(N3C[C@H](Cn4cc(F)nn4)OC3=O)cc2F)CC1 | 100 (≈ 208 µM) |

Tested on: Enterococcus faecalis
Experiment: Antibacterial activity against vancomycin-resistant Enterococcus faecalis C474 by agar dilution method
Type: functional

| Compound | MIC [µg/mL] |
| --- | --- |
| CCOC(=O)CC1=CCN(c2ccc(N3C[C@H](Cn4ccnn4)OC3=O)cc2F)CC1 | 6.25 (≈ 14.6 µM) |
| N#CCC1=CCN(c2ccc(N3C[C@H](Cn4ccnn4)OC3=O)cc2F)CC1 | 3.12 (≈ 8.16 µM) |
| CCOC(=O)C=C1CCN(c2ccc(N3C[C@H](Cn4ccnn4)OC3=O)cc2F)CC1 | 25 (≈ 58.2 µM) |
| N#CC1=CCN(c2ccc(N3C[C@H](Cn4ccnn4)OC3=O)cc2F)CC1 | 3.12 (≈ 8.47 µM) |
| CCOC(=O)C(C)=C1CCN(c2ccc(N3C[C@H](Cn4cc(F)nn4)OC3=O)cc2F)CC1 | 100 (≈ 217 µM) |
| CCOC(=O)C(C)=C1CCN(c2ccc(N3C[C@H](Cn4ccnn4)OC3=O)cc2F)CC1 | 6.25 (≈ 14.1 µM) |
| N#CC1(O)CCN(c2ccc(N3C[C@H](Cn4cc(F)nn4)OC3=O)cc2F)CC1 | 100 (≈ 247 µM) |
| N#CCC1=CCN(c2ccc(N3C[C@H](Cn4cc(F)nn4)OC3=O)cc2F)CC1 | 100 (≈ 250 µM) |
| COC(=O)C=C1CCN(c2ccc(N3C[C@H](Cn4ccnn4)OC3=O)cc2F)CC1 | 3.12 (≈ 7.51 µM) |
| CCOC(=O)C(Cl)=C1CCN(c2ccc(N3C[C@H](Cn4cc(F)nn4)OC3=O)cc2F)CC1 | 100 (≈ 208 µM) |

Tested on: Haemophilus influenzae
Experiment: Antibacterial activity against betalactamase positive Haemophilus influenzae by agar dilution method
Type: functional

| Compound | MIC [µg/mL] |
| --- | --- |
| CCOC(=O)CC1=CCN(c2ccc(N3C[C@H](Cn4ccnn4)OC3=O)cc2F)CC1 | 3.12 (≈ 7.27 µM) |
| N#CCC1=CCN(c2ccc(N3C[C@H](Cn4ccnn4)OC3=O)cc2F)CC1 | 1.56 (≈ 4.08 µM) |
| CCOC(=O)C=C1CCN(c2ccc(N3C[C@H](Cn4ccnn4)OC3=O)cc2F)CC1 | 12.5 (≈ 29.1 µM) |
| N#CC1=CCN(c2ccc(N3C[C@H](Cn4ccnn4)OC3=O)cc2F)CC1 | 1.56 (≈ 4.23 µM) |
| CCOC(=O)C(C)=C1CCN(c2ccc(N3C[C@H](Cn4cc(F)nn4)OC3=O)cc2F)CC1 | 100 (≈ 217 µM) |
| CCOC(=O)C(C)=C1CCN(c2ccc(N3C[C@H](Cn4ccnn4)OC3=O)cc2F)CC1 | 1.56 (≈ 3.52 µM) |
| N#CC1(O)CCN(c2ccc(N3C[C@H](Cn4cc(F)nn4)OC3=O)cc2F)CC1 | 6.25 (≈ 15.5 µM) |
| N#CCC1=CCN(c2ccc(N3C[C@H](Cn4cc(F)nn4)OC3=O)cc2F)CC1 | 12.5 (≈ 31.2 µM) |
| COC(=O)C=C1CCN(c2ccc(N3C[C@H](Cn4ccnn4)OC3=O)cc2F)CC1 | 1.56 (≈ 3.76 µM) |
| CCOC(=O)C(Cl)=C1CCN(c2ccc(N3C[C@H](Cn4cc(F)nn4)OC3=O)cc2F)CC1 | 50 (≈ 104 µM) |

Tested on: Streptococcus pneumoniae
Experiment: Antibacterial activity against penicillin-resistant Streptococcus pneumoniae C402 by agar dilution method
Type: functional

| Compound | MIC [µg/mL] |
| --- | --- |
| CCOC(=O)CC1=CCN(c2ccc(N3C[C@H](Cn4ccnn4)OC3=O)cc2F)CC1 | 1.56 (≈ 3.63 µM) |
| N#CCC1=CCN(c2ccc(N3C[C@H](Cn4ccnn4)OC3=O)cc2F)CC1 | 0.39 (≈ 1.02 µM) |
| CCOC(=O)C=C1CCN(c2ccc(N3C[C@H](Cn4ccnn4)OC3=O)cc2F)CC1 | 6.25 (≈ 14.6 µM) |
| N#CC1=CCN(c2ccc(N3C[C@H](Cn4ccnn4)OC3=O)cc2F)CC1 | 1.56 (≈ 4.23 µM) |
| CCOC(=O)C(C)=C1CCN(c2ccc(N3C[C@H](Cn4cc(F)nn4)OC3=O)cc2F)CC1 | 100 (≈ 217 µM) |
| CCOC(=O)C(C)=C1CCN(c2ccc(N3C[C@H](Cn4ccnn4)OC3=O)cc2F)CC1 | 0.78 (≈ 1.76 µM) |
| N#CC1(O)CCN(c2ccc(N3C[C@H](Cn4cc(F)nn4)OC3=O)cc2F)CC1 | 6.25 (≈ 15.5 µM) |
| N#CCC1=CCN(c2ccc(N3C[C@H](Cn4cc(F)nn4)OC3=O)cc2F)CC1 | 50 (≈ 125 µM) |
| COC(=O)C=C1CCN(c2ccc(N3C[C@H](Cn4ccnn4)OC3=O)cc2F)CC1 | 0.78 (≈ 1.88 µM) |
| CCOC(=O)C(Cl)=C1CCN(c2ccc(N3C[C@H](Cn4cc(F)nn4)OC3=O)cc2F)CC1 | 100 (≈ 208 µM) |
